Legend:
MCC13 cells (VN-MCC) = assay: qHTS cell viability (CellTiter-Glo, 72 h; primary and follow-up small molecule screen); assay type: cell-based, human
MCC26 cells (VN-MCC) = assay: as above; assay type: cell-based, human
UISO cells (VN-MCC) = assay: as above; assay type: cell-based, human
WAGA cells (VP-MCC) = assay: as above; assay type: cell-based, human
MKL-1 cells (VP-MCC) = assay: as above; assay type: cell-based, human
MKL-2 cells (VP-MCC) = assay: as above; assay type: cell-based, human
HACAT cells = assay: qHTS cell viability (CellTiter-Glo, 72 h; primary screen), control cell line; assay type: cell-based, human
HEK293T cells = assay: as above; assay type: cell-based, human
NIH-3T3 cells = assay: as above; assay type: cell-based, mouse
CRL-7250 cells = assay: as above; assay type: cell-based

In the case of `COC[C@H]1OC(=O)c2coc3c2[C@@]1(C)C1=C(C3=O)[C@@H]2CC[C@H](O)[C@@]2(C)C[C@H]1OC(C)=O` [17_-hydroxy Wortmannin], the “Area under the dose-response curve (AUC) MCC13 Replicate 1” value (MCC13 cells (VN-MCC)) is reported as 446.4, the “Area under the dose-response curve (AUC) MCC13 Replicate 2” value (MCC13 cells (VN-MCC)) is reported as 414.9 and the “Area under the dose-response curve (AUC) MCC13 Replicate 3” value (MCC13 cells (VN-MCC)) is reported as 433.1. The MCC13_AUC (MCC13 cells (VN-MCC)) was 505.746, the “Area under the dose-response curve (AUC) MCC26 Replicate 1” value (MCC26 cells (VN-MCC)) was 392.5 and the “Area under the dose-response curve (AUC) MCC26 Replicate 2” value (MCC26 cells (VN-MCC)) was 398.0. The “Area under the dose-response curve (AUC) MCC26 Replicate 3” value (MCC26 cells (VN-MCC)) was 386.6, the MCC26_AUC (MCC26 cells (VN-MCC)) was 506.622 and the “Area under the dose-response curve (AUC) UISO Replicate 1” value (UISO cells (VN-MCC)) was 419.6. For the same compound, the “Area under the dose-response curve (AUC) UISO Replicate 2” value (UISO cells (VN-MCC)) was 426.0, the “Area under the dose-response curve (AUC) UISO Replicate 3” value (UISO cells (VN-MCC)) was 431.4 and the UISO_AUC (UISO cells (VN-MCC)) was 484.969. The “Area under the dose-response curve (AUC) WAGA Replicate 1” value (WAGA cells (VP-MCC)) was 390.4, the “Area under the dose-response curve (AUC) WAGA Replicate 2” value (WAGA cells (VP-MCC)) was 444.0 and the “Area under the dose-response curve (AUC) WAGA Replicate 3” value (WAGA cells (VP-MCC)) was 465.6. For the same compound, the WAGA_AUC (WAGA cells (VP-MCC)) was 431.369, the “Area under the dose-response curve (AUC) MKL-1 Replicate 1” value (MKL-1 cells (VP-MCC)) was 417.4 and the “Area under the dose-response curve (AUC) MKL-1 Replicate 2” value (MKL-1 cells (VP-MCC)) was 456.9. The “Area under the dose-response curve (AUC) MKL-1 Replicate 3” value (MKL-1 cells (VP-MCC)) was 460.6, the MKL1_AUC (MKL-1 cells (VP-MCC)) was 433.03 and the “Area under the dose-response curve (AUC) MKL-2 Replicate 1” value (MKL-2 cells (VP-MCC)) was 408.4. The “Area under the dose-response curve (AUC) MKL-2 Replicate 2” value (MKL-2 cells (VP-MCC)) was 434.1, the “Area under the dose-response curve (AUC) MKL-2 Replicate 3” value (MKL-2 cells (VP-MCC)) was 442.8 and the MKL2_AUC (MKL-2 cells (VP-MCC)) was 431.749. It also gave an HACAT_AUC (HACAT cells) of 466.176, an HEK293T_AUC (HEK293T cells) of 476.067 and an NIH3T3_AUC (NIH-3T3 cells) of 465.601. The CRL7250_AUC (CRL-7250 cells) was 461.56.
Compound `CC(N[C@H]1CCCC[C@@H]1NC(=O)c1ccc(Cl)cc1)c1cccc2ccccc12` (some centres unmarked) [Calhex-231] has an MCC13_AUC (MCC13 cells (VN-MCC)) of 461.512, an MCC26_AUC (MCC26 cells (VN-MCC)) of 461.125 and a UISO_AUC (UISO cells (VN-MCC)) of 470.957. For the same compound, the WAGA_AUC (WAGA cells (VP-MCC)) was 428.682, the MKL1_AUC (MKL-1 cells (VP-MCC)) was 380.302 and the MKL2_AUC (MKL-2 cells (VP-MCC)) was 347.428. The HACAT_AUC (HACAT cells) was 466.353, the HEK293T_AUC (HEK293T cells) was 469.437 and the NIH3T3_AUC (NIH-3T3 cells) was 459.862. For the same compound, the CRL7250_AUC (CRL-7250 cells) was 474.743.
